Data on 17 compounds can be found in ChEMBL document CHEMBL5154727, “Discovery of novel diphenylbutene derivative ferroptosis inhibitors as neuroprotective agents” (Eur J Med Chem, 2022).

Data set [1] can be described thus: Permeability of the compound in PBS/EtOH buffer (70:30) incubated for 10 hrs by UV plate reader based PAMPA-BBB assay. As to conditions: read-out: permeability. The class given is ADME. Background: The PAMPA barrier holds no transporters, so it reflects passive diffusion.
The subject of data set [2] is HT-22. Nature of the data set: Anti-ferroptotic activity against Erastin-induced ferroptosis in […] cells assessed as […] cell viability measured after 24 hrs by MTT assay relative to control. The class given is functional, Mus musculus. On the technique in general: Formazan colour is commonly taken as a measure of viable cells.
Data set [3] relates to HT-22. Nature of the data set: Anti-ferroptotic activity against Erastin-induced ferroptosis in […] cells assessed as […] cell viability measured after 24 hrs by MTT assay. It is filed as functional, cell-based. As to conditions: Mus musculus, HT-22, 24 h.
Data set [4] concerns HT-22. Briefly: Cytotoxicity against […] cells at 40 uM. The class given is toxicity, cell-based. Particulars: mouse, ht-22, 40 µM.
The nature of data set [5]: Metal chelating activity assessed as compound-Fe2+ complex formation at 50 uM by UV-Vis spectroscopic analysis.
A short description of data set [6]: Metal chelating activity assessed as compound-Fe3+ complex formation at 50 uM by UV-Vis spectroscopic analysis.
Data set [7] deals with HT-22. Briefly: Inhibition of RSL-3 induced Ptgs2 mRNA expression in […] cells measured after 4 hrs by quantitative PCR analysis. The class given is functional, cell-based. As to conditions: Mus musculus, dose 1.25-5 µM.
The test system of data set [8] is Rattus norvegicus. Nature of the data set: Neuroprotective activity against middle cerebral artery occlusion-induced ischemia-reperfusion injury Sprague-Dawley rat model assessed as reduction in PTGS2 mRNA expression level at 20 mg/kg, ip measured after 24 hrs by TTC staining based assay. The class given is functional, organism-based.
The subject of data set [9] is HT-22. Nature of the data set: Reduction in lipid ROS accumulation in RSL-3 treated […] cells incubated for 4 hrs by C11-BODIPY staining based flow cytometric analysis. The class given is functional, cell-based. As to conditions: Mus musculus, dose 1.25-5 µM, DDE = dose-dependent effect.
Data set [10] concerns Rattus norvegicus. Nature of the data set: Neuroprotective activity against middle cerebral artery occlusion-induced ischemia-reperfusion injury Sprague-Dawley rat model assessed as morphological changes at 20 mg/kg, ip measured after 24 hrs by H and E staining-based assay. It is filed as functional, organism-based.
Data set [11] relates to HT-22. Briefly: Reduction in cytosolic ROS accumulation in RSL-3 treated […] cells incubated for 4 hrs by H2DCFDA fluorescent probe based flow cytometry method. The class given is functional, cell-based. As to conditions: Mus musculus, dose 1.25-5 µM, DDE = dose-dependent effect. For orientation: Flow cytometry measures light scatter and fluorescence of single cells or particles in a stream.

For data set [12], the system named is HT-22. Nature of the data set: Upregulation of FSP1 mRNA level in […] cells measured after 6 hrs by quantitative PCR analysis. It is filed as functional, cell-based. Particulars: Mus musculus, dose 1.25-5 µM.
In data set [13] the test system is HT-22. Briefly: Reduction in ROS accumulation in RSL-3 treated […] cells assessed as reduction in fluorescence intensity at 5 uM incubated for 4 hrs by C11-BODIPY staining based confocal laser scanning microscopic analysis. The class given is functional, cell-based. Particulars: Mus musculus.
For data set [14], the system named is Rattus norvegicus. Briefly: Neuroprotective activity against middle cerebral artery occlusion-induced ischemia-reperfusion injury Sprague-Dawley rat model assessed as reduction in neurobehavioral defects at 20 mg/kg, ip measured after 24 hrs by Longa test. It is filed as functional, organism-based.
The subject of data set [15] is Rattus norvegicus. Briefly: Neuroprotective activity against middle cerebral artery occlusion-induced ischemia-reperfusion injury Sprague-Dawley rat model assessed as reduction in MDA level at 20 mg/kg, ip measured after 24 hrs by TTC staining based assay. It is filed as functional, organism-based.
The subject of data set [16] is HT-22. Briefly: Upregulation of FSP1 protein level in […] cells measured after 6 hrs by Western blot analysis. The class given is functional, cell-based. As to conditions: Mus musculus, dose 1.25-5 µM.
Data set [17] deals with HT-22. Nature of the data set: Effect on intracellular Fe2+ level in […] cells assessed as fluorescence intensity at 5 uM measured after 10 hrs by Hoechst/FerroOrange staining based confocal laser microscopy. It is filed as functional, cell-based. Particulars: Mus musculus.
The subject of data set [18] is HT-1080. Briefly: Anti-ferroptotic activity against siRNA-mediated GPX4 knockdown induced ferroptosis in human HT-1080 cells at 5 uM preincubated for 12 hrs in Opti-MEM medium followed by compound addition and measured after 36 hrs. It is filed as functional, cell-based.
The subject of data set [19] is Rattus norvegicus. Nature of the data set: Neuroprotective activity against middle cerebral artery occlusion-induced ischemia-reperfusion injury Sprague-Dawley rat model assessed as reduction in 4-HNE level at 20 mg/kg, ip measured after 24 hrs by TTC staining based assay. The class given is functional, organism-based.
Data set [20] relates to Rattus norvegicus. Briefly: Neuroprotective activity against middle cerebral artery occlusion-induced ischemia-reperfusion injury Sprague-Dawley rat model assessed as reduction in infarct volume at 20 mg/kg, ip measured after 24 hrs by TTC staining based assay. The class given is functional, organism-based.
Data set [21] has as its system Rattus norvegicus. Briefly: Neuroprotective activity against middle cerebral artery occlusion-induced ischemia-reperfusion injury Sprague-Dawley rat model assessed as morphological changes at 20 mg/kg, ip measured after 24 hrs by Nissl staining based assay. The class given is functional, organism-based.
The subject of data set [22] is HT-22. Nature of the data set: Upregulation of FSP1 protein level in […] cells assessed as increase in reduced to oxidized COQ10 ratio measured after 6 hrs by Western blot analysis. It is filed as functional, cell-based. Particulars: Mus musculus.
Data set [23] concerns HT-22. Briefly: Anti-ferroptotic activity against Erastin-induced ferroptosis in […] cells assessed as inhibition of cell death measured after 24 hrs by MTT assay. It is filed as functional, cell-based. As to conditions: Mus musculus, HT-22, 24 h.
The subject of data set [24] is HT-22. Nature of the data set: Anti-ferroptotic activity against RSL-3-induced morphological changes in […] cells assessed as retention of cell morphology measured after 24 hrs. It is filed as functional, cell-based. Particulars: Mus musculus, dose 1.25-5 µM, DDE = dose-dependent effect.
For data set [25], the system named is HT-22. Briefly: Anti-ferroptotic activity against RSL-3 induced ferroptosis in […] cells assessed as inhibition of cell death measured after 24 hrs by MTT assay. The class given is functional, cell-based. Particulars: Mus musculus, HT-22, 24 h.
In data set [26] the test system is HT-22. Briefly: Reduction in ROS accumulation in RSL-3 treated […] cells assessed as reduction in fluorescence intensity at 1 uM incubated for 4 hrs by C11-BODIPY staining based confocal laser scanning microscopic analysis. It is filed as functional, cell-based. As to conditions: Mus musculus.
Data set [27] concerns HT-1080. Nature of the data set: Anti-ferroptotic activity against siRNA-mediated GPX4 knockdown induced ferroptosis in human HT-1080 cells at 1 uM preincubated for 12 hrs in Opti-MEM medium followed by compound addition and measured after 36 hrs. It is filed as functional, cell-based.
Data set [28] deals with HT-22. Nature of the data set: Anti-ferroptotic activity against RSL-3-induced morphological changes in […] cells assessed as retention of cell morphology at 1 uM measured after 24 hrs. The class given is functional, cell-based. Particulars: Mus musculus.

In general, pEC50 refers to the negative decadic logarithm of the EC50, by convention in mol/L.

pEC50: −log10 of the molar value. Calls of active or inactive are those of the source. No cut-off for these calls is given here.

As to `O=C(/C(=C/C=C/c1ccc(O)cc1)c1ccccc1)N1CCN(c2ncccn2)CC1`, the Papp at 10 h in [1] was determined as 5.2 ×10⁻⁶ cm/s. Also, the Activity with HT-22 [2] is 81.9%; with HT-22 [4] it was “Non-Toxic”. For the same compound, the pEC50 with HT-22 [3] is 4.92.

As to `COc1cc(/C=C/C=C(/C(=O)N2CCN(c3ncccn3)CC2)c2cccc(O)c2)ccc1O`, the Papp at 10 h in data set [1] amounted to 5.2 ×10⁻⁶ cm/s. Also, in the data set with HT-22 [2], the Activity is given as 84.2%. Besides, the pEC50 in the data set with HT-22 [3] was 5.35.

Consider `CC(=O)N(O)CCCCCNC(=O)CCC(=O)N(O)CCCCCNC(=O)CCC(=O)N(O)CCCCCN`, for which the result in data set [5] and in data set [6] was Active.

`O=C(/C(=C/C=C/c1cccc(O)c1)c1ccccc1)N1CCN(c2ncccn2)CC1`: the Papp at 10 h in data set [1] came to 9.9 ×10⁻⁶ cm/s. The pEC50 in the data set on HT-22 [3] was < 4.70.

Take `COc1ccc(/C(=C\C=C\c2ccccc2)C(=O)N2CCN(c3ncccn3)CC2)cc1OC`: the Papp at 10 h in [1] was 16.4 ×10⁻⁶ cm/s. Also, the pEC50 in the data set with HT-22 [3] is < 4.70.

`COc1ccc(/C=C/C=C(/C(=O)N2CCN(c3ncccn3)CC2)c2ccccc2)c(OC)c1`: the Papp at 10 h in data set [1] is 18.9 ×10⁻⁶ cm/s. The pEC50 in the data set on HT-22 [3] is < 4.70.

As for `COc1cc(/C(=C\C=C\c2ccccc2)C(=O)N2CCN(c3ncccn3)CC2)ccc1O`, the Papp at 10 h in data set [1] turned out to be 10.2 ×10⁻⁶ cm/s. Besides, the pEC50 in the data set on HT-22 [3] is < 4.70.

For `COc1cc(/C=C/C=C(/C(=O)N2CCN(c3ncccn3)CC2)c2ccc(O)c(OC)c2)ccc1O`, the Papp at 10 h in [1] worked out at 5.3 ×10⁻⁶ cm/s. Further, in the data set with HT-22 [2], the Activity worked out at 79.5%. Moreover, the pEC50 in the data set with HT-22 [3] was 5.40.

Consider `COc1cc(/C=C/C=C(/C(=O)N2CCN(c3ncccn3)CC2)c2ccccc2)ccc1O`, for which the inhibition entry in the data set on HT-22 [7] (DDE = dose-dependent effect) was “Dde”. Moreover, the outcome with Rattus norvegicus [8], in the data set with Rattus norvegicus [10], in the data set on HT-22 [12], with HT-22 [13], with Rattus norvegicus [14] and in the data set with Rattus norvegicus [15] was Active. Further, the outcome in the data set on HT-22 [16], in the data set with HT-22 [17], in the data set on HT-1080 [18], in the data set with Rattus norvegicus [19], in the data set with Rattus norvegicus [20] and in the data set on Rattus norvegicus [21] was Active. The outcome in the data set on HT-22 [22] was Active. The Activity result in the data set on HT-22 [9] was “Dde”; with HT-22 [11], “Dde”; in the data set on HT-22 [2], 76.7%; in the data set with HT-22 [24], “Dde”. Further, in data set [1], the Papp at 10 h was 15.3 ×10⁻⁶ cm/s. Also, the pEC50 in the data set on HT-22 [3], in the data set on HT-22 [23] and in the data set with HT-22 [25] was 5.77 in each case.

In the case of `COC(=O)c1ccc([C@H]2c3[nH]c4ccccc4c3C[C@H](C(=O)OC)N2C(=O)CCl)cc1`, the inhibition result in the data set on HT-22 [7] was “Active”. Also, in the data set with HT-22 [26], the outcome was Active.

On to `O=C(/C(=C/C=C/c1ccccc1)c1cccc(O)c1)N1CCN(c2ncccn2)CC1`, for which the Papp at 10 h in data set [1] came out at 14.5 ×10⁻⁶ cm/s. Besides, in the data set on HT-22 [3], the pEC50 is < 4.70.

Take `COc1cccc(OC)c1/C=C/C=C(/C(=O)N1CCN(c2ncccn2)CC1)c1ccccc1`: the pEC50 in the data set on HT-22 [3] was < 4.70.

For `COc1ccc(/C=C/C=C(/C(=O)N2CCN(c3ncccn3)CC2)c2ccccc2)cc1`, the Papp at 10 h in data set [1] came out at 15.7 ×10⁻⁶ cm/s. In the data set on HT-22 [3], the pEC50 was < 4.70.

With `COc1ccccc1/C=C/C=C(/C(=O)N1CCN(c2ncccn2)CC1)c1ccccc1`, the Papp at 10 h in data set [1] was determined as 13.6 ×10⁻⁶ cm/s. Besides, the pEC50 with HT-22 [3] was < 4.70.

Turning to `O=C(/C(=C/C=C/c1ccccc1)c1ccc(O)cc1)N1CCN(c2ncccn2)CC1`, the Papp at 10 h in data set [1] was 8.3 ×10⁻⁶ cm/s. In addition, the pEC50 in the data set on HT-22 [3] was < 4.70.

Regarding `CCOC(=O)c1ccc(NC2CCCCC2)c(N)c1`, the outcome in the data set with HT-1080 [27], with HT-22 [26] and in the data set with HT-22 [28] was Active.

Turning to `COc1cccc(/C=C/C=C(/C(=O)N2CCN(c3ncccn3)CC2)c2ccccc2)c1`, the Papp at 10 h in data set [1] is 10.2 ×10⁻⁶ cm/s. In addition, in the data set with HT-22 [3], the pEC50 was < 4.70.
